Data on 1 compound can be found in article PMC10835127, “Viruses traverse the human proteome through peptide interfaces that can be biomimetically leveraged for drug discovery” (Proceedings of the National Academy of Sciences of the …, 2024).

A short description of one series: Kinetic solubility. The format is physicochemical. As to conditions: PBS pH 7.4 buffer, pH 7.4, aqueous buffer, kinetic from dmso stock. The protocol:
10 mM DMSO Stock solutions of tested compounds were distributed into filtration plate (Multiscreen Durapore 0.45µm) containing PBS pH 7.4 buffer to a final maximum concentration of 130 μM (1.3 % DMSO/buffer). Solutions or suspensions were shaken for 30 min at room temperature. The samples were filtered under vacuum into a collection plate and diluted 50 % with ACN for UV analysis. Quantification was performed against a Reference plate containing the same tested compounds fully solubilized in ACN/PBS buffer 1:1. Reference and Sample plates were analyzed by UPLC/UV-MS using a generic UPLC method. […]

A short description of another series: in vivo. Particulars: male, Sprague Dawley, rat, 50 mg/kg, 50 mg/kg per os. The protocol: For this molecule, both antiviral potency (IC50 of 3 nM) and PK properties were improved, with low clearance and high exposure in mouse plasma. […] The tissue distribution was also assessed at two different time points (2 and 24 h) after per os administration in mice (20 mg/kg) and rats (50 mg/kg) (Fig. 5C). […] Such low lung/plasma ratio precluded the use of dEF3122 in respiratory diseases such as influenza without further optimization.

Another series deals with T1, MitoNEET (Homo sapiens, UniProt Q9NZ45).
T1 construct: MitoNEET ([60]) and NAF-1 ([61]) cytosolic domains and MiNT ([62]) were purified from E. coli as previously published; made in house; host or cells: E. coli
T1 sequence (Q9NZ45 32-108 limits assumed): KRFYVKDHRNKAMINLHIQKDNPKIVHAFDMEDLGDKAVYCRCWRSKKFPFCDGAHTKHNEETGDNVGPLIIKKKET
The series can be described thus: In vitro NEET [2Fe-2S] cluster release, MitoNEET. It counts as biochemical. Particulars: recombinant MitoNEET, 37 °C, absorbance 460 nm. The protocol: MitoNEET ([60]) and NAF-1 ([61]) cytosolic domains and MiNT ([62]) were purified from E. coli as previously published. Experiments were performed in 96-well plates at 37 °C with […] of Fe-S cluster in a buffer composed of 50 mM Tris-HCl pH 7 and 100 mM NaCl. dEF3122 was dissolved in dimethyl sulfoxide (DMSO) at 10 mM. CPEP31 was dissolved in PBS at 10 mM. After 20 min of incubation of the protein with the molecule, NEET cluster release was followed by measuring the absorbance at 460 and 800 nm over time using a plate reader (SpectraMax ID3). The absorbance at 460 nm was corrected for the variation of the baseline (absorbance at 800 nm) over time and normalized at 1 at the beginning of the kinetics.

Series [1] relates to diet-induced obese model of NASH. The series can be described thus: NASH mouse model (AMLN diet-induced obese). The format is in vivo, C57BL/6JRj mice. Particulars: oral, 8 wk. The protocol: Fig. 6. Effect of the lead compound in a diet-induced obese model of NASH. Mice fed with a high fat, high fructose, and cholesterol supplemented diet for 38 wk were then treated in the last 8 wk with vehicle, dEF3122, or OCA (obeticholic acid) at indicated concentrations (n = 12 animals per group). (A and B) Histopathological mean score changes between the beginning and end of the treatment for liver portal inflammation (A) and liver portal fibrosis (B) are shown with representative stained liver sections of hematoxylin and eosin (H&E) and picrosirius red stains, respectively. (C–E) (C) Areas of kidney fibrosis at the end of the treatment are shown as % of the total area of the selected fields with representative sections of the kidney stained with picrosirius red. (D) % CD3 and (E) % F4/80 positive areas in kidneys with representative sections of CD3 and F4/80 immunostainings. *P < 0.05, **P < 0.01, and ***P < 0.001 from the T test with a preliminary nonsignificant Shapiro–Wilk test or from Wilcoxon signed–rank test otherwise.
Five-week-old male C57BL/6JRj mice were fed either chow diet or AMLN diet (40% total fat kcal of which 18.5% were trans-fat kcal, 20% fructose, and 2% cholesterol). This diet was maintained for 30 wk prior to study initiation. Three weeks prior to study initiation, liver biopsies were taken, and animals with steatosis grade <2 and fibrosis stage <1 were excluded from the study. Prior to the first administration of the test compound, stratified randomization of mice into treatment groups was performed according to collagen 1a1 (IHC) morphometry from the week 3 biopsies. Each treatment group consisted of 12 mice. For a total of 8 wk, compound dEF3122 was administered orally, twice daily at a concentration of 7 mg/kg or 20 mg/kg. OCA was administered orally, once daily at a concentration of 7 mg/kg. Animals were killed at the end of the treatment, and livers and kidneys were collected. […]
NASH histopathology and immunochemistry
Livers were fixed in 10 % neutral buffered formalin and paraffin-embedded; and sections were stained with H&E and picrosirius red to analyze their morphology. Histopathological analysis was performed by a pathologist blinded to the study. Fibrosis was evaluated by quantification of the picrosirius red positive areas. Inflammation was graded by counting the H&E positive inflammatory foci per field.
Kidneys were fixed in 4 % PFA and paraffin embedded. 4-μm sections were stained with picrosirius red. Images were acquired using a digital slide scanner (Nanozoomer S210 Digital Slide Scanner, Hamamatsu). Renal lesions were blindly examined by a renal pathologist. The extent of interstitial fibrosis was quantified using Image J software (NIH) on Sirius red scanned colored sections. In short, at least 20 random selected fields (original magnification, ×200) across the kidney cortex were analyzed per each kidney section, and the results were expressed as percentages of the total area of the selected fields.
For immunohistochemistry, 4-µm sections of paraffin-embedded kidneys were submitted for appropriate antigen retrieval by high pressure heating in a solution of Tris EDTA Tween or in a citrate solution. Then, sections were then incubated overnight at 4°C with the following antibodies: rabbit monoclonal anti-CD3 (Abcam, 1:100) and rat monoclonal anti- F4/80 (Biorad, 1:100). After washing, sections were incubated with appropriate amplification secondary antibody: biotin-coupled anti-rabbit (GE Healthcare) for CD3 and biotin-coupled anti-rat (Vector Laboratories) for F4/80, and then incubated with streptavidin coupled HRP (Southern). At the end, DAB (DAKO) staining was used to detect HRP. For quantification of CD3+ and F4/80+ renal cells, the degrees of cellular infiltrate were automatically quantified using ImageJ software (NIH) and expressed as a percentage of the surface area of the positive staining per field, in at least 10 random fields perp

Where [2] appears, read: dEF3122 twice daily 7 or 20 mg/kg, OCA once daily 7 mg/kg, vs vehicle.

Where two headings read alike, the source gives them in different places. Where only a bound is given, the exact number is not on record here.

Regarding `O=C(Nc1scc(C2CCc3ccccc3C2)c1C(=O)O)c1ccccc1` (centres unmarked) [dEF3122], in “Kinetic solubility”, the kinetic solubility at 30 min was below 5 µM. Moreover, the Kp in the series “in vivo” (2 h, read-out: Liver:Plasma Ratio) was 0.91; in “in vivo” (2 h, read-out: Lung:Plasma Ratio), 0.11; in the series “in vivo” (24 h, read-out: Liver:Plasma Ratio), 0.78; in “in vivo” (24 h, read-out: Lung:Plasma Ratio), 0.18. Also, the “interaction by [2Fe-2S] cluster release assay” value at MitoNEET is given as “validated the interaction”. In addition, the “kidney interstitial lymphocytes infiltration (CD3)” value in series [1] (twice daily 7 or 20 mg/kg) is listed as “attenuated interstitial lymphocytes infiltration”. Moreover, the “kidney macrophages infiltration (F4/80)” value in series [1] (twice daily 7 or 20 mg/kg) is given as “but not macrophages infiltration”. In addition, the kidney fibrosis entry in series [1] (twice daily 7 or 20 mg/kg, picrosirius red) is “dramatically reduced fibrosis”. In addition, the liver portal fibrosis result in series [1] (setting [2]) is “resolved portal inflammation and fibrosis”. Besides, the liver portal inflammation entry in series [1] (setting [2]) is “resolved portal inflammation”.

The term solubility (kinetic) denotes solubility judged after dilution from a stock solution rather than from solid.
